Key:
Assay in all cases: drug sensitivity score (DSS2, normalised partial AUC of dose-response, 72 h CellTiter-Glo viability) (DSS (dimensionless)); higher = more sensitive (stronger growth inhibition / cytotoxicity); extreme values may be limits of the assay
[1] = tested on: CAF#1 (primary prostate cancer-associated fibroblasts of myCAF-like type)
Procedure, shortened: (§1)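 In BREEZE, the drug sensitivity score was derived as a partial area under a fitted logistic dose–response curve over the log of that curve's upper asymptote; a higher score marks a more sensitive response. The input came from low-passage primary prostate cancer-associated fibroblasts, PF179T, WPMY-1, LNCaP and 22Rv1 cells, each seeded into 384-well plates with compounds pre-dispensed at five doses spanning a 10,000-fold range. CellTiter-Glo 2.0 luminescence after 72 h gave viability, which was normalized to vehicle and positive-control wells.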

[2] = tested on: CAF#5 (primary prostate cancer-associated fibroblasts of myCAF-like type)
Procedure, shortened: as §1

[3] = tested on: CAF#2 (primary prostate cancer-associated fibroblasts of iCAF-like type)
Procedure, shortened: as §1

[4] = tested on: LNCAP
Procedure, shortened: as §1

[5] = tested on: CAF#3 (primary prostate cancer-associated fibroblasts of myCAF-like type)
Procedure, shortened: as §1

[6] = tested on: CAF#4 (primary prostate cancer-associated fibroblasts of iCAF-like type)
Procedure, shortened: as §1

[7] = tested on: CAF#7 (primary prostate cancer-associated fibroblasts of myCAF-like type)
Procedure, shortened: as §1

[8] = tested on: 22Rv1
Procedure, shortened: as §1

[9] = tested on: WPMY-1
Procedure, shortened: as §1

[10] = tested on: PF179T
Procedure, shortened: as §1

[11] = tested on: CAF#6 (primary prostate cancer-associated fibroblasts of iCAF-like type)
Procedure, shortened: as §1

Row | SMILES | drug sensitivity score [1] | drug sensitivity score [2] | drug sensitivity score [3] | drug sensitivity score [4] | drug sensitivity score [5] | drug sensitivity score [6] | drug sensitivity score [7] | drug sensitivity score [8] | drug sensitivity score [9] | drug sensitivity score [10] | drug sensitivity score [11]
1 | OC[C@H]1O[C@@H](n2cnc3c2N=CNC[C@H]3O)C[C@@H]1O [Pentostatin] (tested concentration range 1-10000 nM) | 0 | 0 | 0 | 0 | 0 | 0 | 0 | 0 | 0 | 0 | 0
2 | CCN1CCN(c2ccc(Nc3cc(N(C)C(=O)Nc4c(Cl)c(OC)cc(OC)c4Cl)ncn3)cc2)CC1 [Infigratinib] (tested concentration range 0.1-1000 nM) | 0 | 0 | 0 | 0 | 0 | 0 | 0 | 0 | 0 | 0 | 0
3 | CNC(=O)c1ccccc1Sc1ccc2c(/C=C/c3ccccn3)n[nH]c2c1 [Axitinib] (tested concentration range 1-10000 nM) | 2.8 | 2 | 5.1 | 5.7 | 5.5 | 4.2 | 5.5 | 1.6 | 4.9 | 0.8 | 3.3
4 | CN1CCc2c(c3ccccc3n2Cc2ccc(C(=O)NO)cc2)C1 [Tubastatin A] (tested concentration range 1-10000 nM) | 0 | 0 | 0.2 | 1.4 | 0.6 | 2.8 | 0 | 2.3 | 5.9 | 0 | 0
5 | CN1CCN(c2ccc3nc(-c4c(N)c5c(F)cccc5[nH]c4=O)[nH]c3c2)CC1 [Dovitinib] (tested concentration range 1-10000 nM) | 0.2 | 0.8 | 2.6 | 0.3 | 0.7 | 0 | 0 | 0.2 | 0 | 0 | 0
6 | O[C@H]1CC[C@H](Nc2ncc3nc(Nc4c(F)cc(F)cc4F)n([C@H]4CCOC4)c3n2)CC1 [Tanzisertib] (tested concentration range 1-10000 nM) | 0 | 0 | 0 | 1.3 | 3.3 | 0 | 0 | 0 | 0 | 0 | 0.2
7 | COc1cc2c(NC3CCN(C(C)C)CC3)nc(N3CCC(F)(F)CC3)nc2cc1OCCCN1CCCC1 [UNC0642] (tested concentration range 1-10000 nM) | 0 | 0 | 0 | 4.5 | 0 | 0 | 1.9 | 5.8 | 4.8 | 0 | 0.7
8 | COc1ccc(CCc2nc3cc(-c4c(C)noc4C)ccc3n2C[C@H](C)N2CCOCC2)cc1Cl [SGC-CBP30] (tested concentration range 2.5-25000 nM) | 1.6 | 0.8 | 1.5 | 8.5 | 5.4 | 1.3 | 1.2 | 6.2 | 7.4 | 0.1 | 2.2
9 | Cn1cncc1[C@@](N)(c1ccc(Cl)cc1)c1ccc2c(c1)c(-c1cccc(Cl)c1)cc(=O)n2C [Tipifarnib] (tested concentration range 1-10000 nM) | 2.1 | 4.8 | 7.6 | 14.8 | 7.3 | 7 | 1.4 | 13.8 | 9.8 | 4.6 | 3.2
10 | CCN(CC)CCNC(=O)c1c(C)[nH]c(/C=C2\C(=O)Nc3ccc(F)cc32)c1C [Sunitinib] (tested concentration range 0.1-1000 nM) | 0 | 0.3 | 2.5 | 0 | 2.8 | 0 | 0 | 0.8 | 0.5 | 0 | 0
11 | O=c1[nH]cc(F)c(=O)[nH]1 [Fluorouracil] (tested concentration range 1-10000 nM) | 2.6 | 2.9 | 3.6 | 4.6 | 0.5 | 2 | 2.1 | 2.4 | 0.2 | 3.4 | 1.6
12 | Nc1nc2cc(-c3ccc4ncc(C(=O)N5CCOCC5)n4c3)ccc2o1 [Serabelisib] (tested concentration range 1-10000 nM) | 3.2 | 5.7 | 4.3 | 2.3 | 4.2 | 2.1 | 3.4 | 5.2 | 1.2 | 2.8 | 4.5
13 | Clc1ccc(C(c2ccccc2Cl)C(Cl)Cl)cc1 (stereo not drawn) [Mitotane] (tested concentration range 1-10000 nM) | 0 | 0 | 0 | 1.8 | 0.2 | 0 | 0 | 0 | 0 | 0 | 0
14 | CC(O)(CS(=O)(=O)c1ccc(F)cc1)C(=O)Nc1ccc(C#N)c(C(F)(F)F)c1 (stereo not drawn) [Bicalutamide] (tested concentration range 1-10000 nM) | 1.7 | 1.2 | 1.5 | 2.3 | 1.4 | 0 | 0.5 | 0.5 | 0 | 0.2 | 1.1
15 | COc1cc(OC)cc(N(CCNC(C)C)c2ccc3ncc(-c4cnn(C)c4)nc3c2)c1 [Erdafitinib] (tested concentration range 0.1-1000 nM) | 5.9 | 2.7 | 4.8 | 0 | 6.2 | 8.8 | 15 | 0 | 0 | 7.2 | 8
16 | CC(C)C[C@H](NC(=O)[C@@H](COC(C)(C)C)NC(=O)[C@H](Cc1ccc(O)cc1)NC(=O)[C@H](CO)NC(=O)[C@H](Cc1c[nH]c2ccccc12)NC(=O)[C@H](Cc1cnc[nH]1)NC(=O)[C@@H]1CCC(=O)N1)C(=O)N[C@@H](CCCNC(=N)N)C(=O)N1CCC[C@H]1C(=O)NNC(N)=O [Goserelin] (tested concentration range 1-10000 nM) | 0 | 0.2 | 0 | 0 | 0 | 0 | 0 | 0 | 0 | 0 | 0.6
17 | C=C1C[C@@H]2[C@H](CC[C@]3(C)C(=O)CC[C@@H]23)[C@@]2(C)C=CC(=O)C=C12 [Exemestane] (tested concentration range 1-10000 nM) | 0 | 0 | 0 | 2.5 | 0.7 | 0 | 0 | 0 | 0 | 0 | 0
18 | C=CC(=O)Nc1cc(Nc2nccc(-c3cn(C)c4ccccc34)n2)c(OC)cc1N(C)CCN(C)C [Osimertinib] (tested concentration range 0.2-2500 nM) | 3.4 | 4.8 | 5 | 6.4 | 5.4 | 3.7 | 4.2 | 5.9 | 4.6 | 1.9 | 3
19 | Cc1cc(Nc2cc(N3CCN(C)CC3)nc(Sc3ccc(NC(=O)C4CC4)cc3)n2)n[nH]1 [Tozasertib] (tested concentration range 1-10000 nM) | 3.2 | 3.5 | 8.4 | 7 | 4.9 | 3.2 | 4.7 | 5.5 | 14.5 | 8.2 | 3
20 | NC(=O)c1cccc2cn(-c3ccc([C@@H]4CCCNC4)cc3)nc12 [Niraparib] (tested concentration range 1-10000 nM) | 1.5 | 1.7 | 3.9 | 5.5 | 3.2 | 2.5 | 3.7 | 7.5 | 4.4 | 5.8 | 1.1
21 | CCN(CC)C(=S)SSC(=S)N(CC)CC [Disulfiram] (tested concentration range 5-50000 nM) | 5 | 6.6 | 3.7 | 0.1 | 0 | 0.9 | 0.1 | 0 | 0 | 0 | 0
22 | Cc1ncc(-c2ccnc(Nc3ccc(S(C)(=O)=O)cc3)n2)n1C(C)C [AZD-5438] (tested concentration range 1-10000 nM) | 4.1 | 2.9 | 3.9 | 10.2 | 4 | 6.8 | 5.6 | 7.6 | 8.7 | 2.5 | 3
23 | COCCNCc1ccc(-c2cc3nccc(Oc4ccc(NC(=S)NC(=O)Cc5ccc(F)cc5)cc4F)c3s2)nc1 [Glesatinib] (tested concentration range 0.2-2500 nM) | 5.6 | 4.3 | 5.1 | 1.3 | 4.4 | 5.7 | 4.2 | 1.4 | 2.5 | 3.4 | 3.4

From the supplement of paper PMC12592484
